{
  "source": "patent US20230114207A1",
  "about": "“THE COMBINATION OF CYCLIN DEPENDENT KINASE 7 INHIBITOR AND IMMUNOTHERAPY FOR TREATMENT OF CANCER” (Dana-Farber Cancer Institute, Inc., priority 2019, published 2023)",
  "key": {"OT-I CD8^+ T cells": {"test_system": "OT-I CD8^+ T cells", "assay": "Ex vivo OT-I T cell assay", "assay_type": "cell-based, mouse", "experimental": "The spleen of OT-I mice was minced with a razor and mashed through a 40 µm strainer to form a single-cell suspension. Separated cells were then treated with RBC lysis buffer and a number of 5×10^5 cells were seeded in a 96-well U-bottom plate. For conditioned medium culture assay, RPP631 cells were treated with either DMSO or YKL-5-124 for 48 hr and drug was washed off after first 6-hour treatment. Subsequently, DMSO-conditioned medium or YKL-5-124-conditioned medium were collected and added to above single-cell suspension in a 96-well U-bottom plate in the presence of Ova257-264 peptide (10 μg/ml, GenScript, Cat #RP10611) for 4 days. Alternatively, DMSO or YKL-5-124 was added directly to single-cell suspension in the presence of Ova257-264 peptide for 4 days in the T cell assay medium (complete RPMI with HEPES, sodium pyruvate, MEM nonessential amino acids and 2-mercaptethonal). T cell activation markers CD69, TNFα. and IFNγ were analyzed by flow cytometry."}, "RPP-MYC orthotopic model": {"test_system": "RPP-MYC orthotopic model", "assay": "Treatment study in RPP-MYC orthotopic SCLC model", "assay_type": "in vivo, mouse", "experimental": "(§1) All animal studies were reviewed and approved by the Institutional Animal Care and Use Committee (IACUC) at the New York University Langone Health (NYULH) and Dana-Farber Cancer Institute (DFCI). From 6 weeks of age, mice were induced with adenovirus-Cre recombinase (Ad-Cre) by intratracheal intubation to allow cre-lox-mediated recombination of floxed Rb1, p53 and p130 alleles. For syngeneic orthotopic models, ultrasound-guided transthoracic injection was performed using 200,000 RPP631, RP or RPP-MYC cells in 30 μL PBS directly into the lung of 6 to S-week-old C57BL/6 (Jackson Laboratory, Stock No: 000664). For OT-IT cell assay, OT-I mice were purchased from the Jackson Laboratory (Stock No: 003S31). Both males and females mice were used and all mice were maintained in accordance with the respective NYULH and DFCI on the care, welfare, and treatment of laboratory animals. […]\n(§2) Animals were anesthetized with isoflurane to perform MRI of the lung field using BioSpec USR70/30 horizontal bore system (Bruker) to scan 24 consecutive sections. Tumor volumes within the whole lung were quantified using 3-D slicer software to reconstruct MRI volumetric measurements as described previously. […]"}, "RPP orthotopic model": {"test_system": "RPP orthotopic model", "assay": "Treatment study in RPP orthotopic SCLC model", "assay_type": "in vivo, mouse", "experimental": "as §1, §2"}, "[1]": {"test_system": "tumor-infiltrating immune cells, RPP orthotopic model", "assay": "Immune profiling flow cytometry of tumor-bearing lung", "assay_type": "in vivo, mouse", "experimental": "Mice were humanely euthanized, and mouse lungs were perfused using sterile PBS through heart perfusion from the left ventricle after BAL fluid collection. The whole lung was cut and minced into small pieces followed by digestion in collagenase D (Sigma-Aldrich) and DNase I (Sigma-Aldrich) in Hank's Balanced Salt Solution (HBSS) at 37° C. for 30 minutes. After incubation, the digested tissue was subjected to a 70 μm cell strainer (Thermo Fisher Scientific) to obtain single-cell suspensions. Separated cells were treated with 1×red blood cell (RBC) lysis buffer (BioLegend). Live cells were determined by LIVE/DEAD fixable aqua dead cell stain kit (Molecular Probes). The cell pellets were resuspended in PBS with 2% FBS for FAGS analysis. Cells were stained with cell surface markers as indicated followed by fixation/permeabilization (eBioscience). Cells were imaged on BD LSRFortessa (BD Biosciences) and analyzed using FlowJo software (Tree Star)."}, "cGAS-STING pathway": {"test_system": "cGAS-STING pathway", "assay": "cGAS-STING pathway analysis (western blotting; cGAS knockout RT-qPCR)", "assay_type": "cell-based, mouse, human", "conditions": "DMS79, RPP631, cGAS knockout RPP631", "experimental": "Cell pellets were collected and then subjected to total RNA extraction using RNeasy Plus Mini Kit (QIAGEN, Cat #74136) according to the manufacturer's instructions, or using TRIzol:Chloroform phase-separation by centrifugation followed by RNA precipitation using isopropanol. The extracted RNA was reversely transcribed into cDNA using the High-Capacity RNA-to-cDNA™ Kit (Thermo Fisher Scientific, Cat #4387406) according to the manufacturer's instructions. The obtained cDNA samples were diluted and used for RT-qPCR. PowerUp™ SYBR™ Green Master Mix (Thermo Fisher Scientific, Cat #A25742) or TaqMan Gene Expression Master Mix (Life Technologies, Cat #4369514). Gene specific primers with sequences listed in Table 3 were used for PCR amplification and detection on the StepOnePlus™ Real-Time PCR System (Thermo Fisher Scientific). RT-qPCR data were normalized to Actb (mouse cells) or GUSB (human cells) and presented as fold changes of gene expression in the test sample compared to the control.\nCells in culture were collected by centrifuging at 1,500 rpm and then washed with ice-cold PBS twice to completely remove residual medium. […] Protein concentrations in lysates were measured by Pierce™ BCA Protein Assay Kit (Thermo Fisher Scientific, Cat #23225) and followed by the addition of SDS loading buffer (6×) and heated at 95° C. for 5 min. […]"}},
  "data": [
    {"smiles": "C=CC(=O)Nc1ccc(C(=O)Nc2n[nH]c3c2CN(C(=O)N[C@H](CN(C)C)c2ccccc2)C3(C)C)cc1", "note": "[YKL-5-124]", "values": [
      {"measurement": "CD8^+ T cell activity", "setting": "OT-I CD8^+ T cells; OT-I T cells directly treated", "result": "No significant effect"},
      {"measurement": "percentage of CD69^+, TNFα^+ and IFNγ^+ CD8^+ T cells", "setting": "OT-I CD8^+ T cells; YKL-5-124-conditioned medium of mouse SCLC cells vs DMSO-conditioned medium", "result": "significant increase"},
      {"measurement": "tumor response / tumor growth (MRI tumor volume)", "setting": "RPP-MYC orthotopic model", "result": "notably delayed tumor growth"},
      {"measurement": "added median survival benefit", "setting": "RPP orthotopic model; RPP model, vs control", "result": "approximately 30 days"},
      {"measurement": "tumor response / tumor growth (MRI tumor volume)", "setting": "RPP orthotopic model; RPP orthotopic model, 2- to 3-week", "result": "significant tumor response"},
      {"measurement": "CD44^highCD62L^+ effector CD4^+ T cells (CD44^highCD62L^low for the combination)", "setting": "[1]; 7-day treatment", "result": "substantial increase"},
      {"measurement": "GzmB^+ CD8^+ T cells percentage", "setting": "[1]; 7-day treatment", "result": "considerable but equivalent increase"},
      {"measurement": "ICOS^+ CD4^+ T cells", "setting": "[1]; 7-day treatment", "result": "significantly higher frequencies"},
      {"measurement": "frequencies of total CD4^+ T cell infiltrates", "setting": "[1]; 7-day treatment", "result": "no significant change"},
      {"measurement": "frequencies of total CD8^+ T cell infiltrates", "setting": "[1]; 7-day treatment", "result": "no significant change"},
      {"measurement": "tumor-infiltrating CD4^+ T cells expressing Ki67", "setting": "[1]; 7-day treatment", "result": "modest increase"},
      {"measurement": "percentages of tumor resident DCs (MHCII^+ CD11c^+ CD103^+)", "setting": "[1]; compared to control mice", "result": "significant increase"},
      {"measurement": "dependence of the immune stimulatory effect on the cGAS-STING pathway", "setting": "cGAS-STING pathway", "result": "independent of this pathway"}
    ]}
  ]
}
